Converted amounts (≈) assume the structure as drawn. Like-named read-outs stand apart in the source and are kept apart here. *1 amine or outer side, *2 acyl side, *3 side chain or, on linkers, in order; H or OH if unused. Where a SMILES comes first, the peptide text is derived from it. [ ]: non-standard residue; d: D form. The star is where a group is joined. ξ: configuration not given here. boroAla((+)-pinanediol) = C[C@H](N*)B1O[C@@H]2C[C@@H]3C[C@@H](C3(C)C)[C@]2(C)O1; Biphenylcarbonyl(4'-Bu) = CCCCc1ccc(-c2ccc(C(=O)*)cc2)cc1; Benzoyl(4-(4-Cl-Ph)) = O=C(c1ccc(-c2ccc(Cl)cc2)cc1)*; ξ3Amino2oxobutanoyl = CC(N[*:1])C(=O)C(=O)[*:2]; X1 = C[C@H](N[*:1])C(=O)C(=O)[*:2]; aThr = C[C@H](O)[C@H](N)C(=O)O; Thr(3ξ) = CC(O)[C@H](N)C(=O)O; NHPhenethyl = c1ccc(CCN*)cc1; X9 = CC1(c2ccccc2)CCN(*)CC1; Decanoyl = CCCCCCCCCC(=O)*; boroAla = C[C@H](N*)B(O)O; Dab = NCC[C@H](N)C(=O)O; Dap = NC[C@H](N)C(=O)O; CO = O=C([*:1])[*:2]; NHtBu = CC(C)(C)N*; βAla = NCCC(=O)O
How the values were obtained:
S. aureus SPase = S. aureus SPase (Staphylococcus aureus, UniProt P0A070); test: biochemical; settings: IC 50 (nM) S. aureus, 20 μM substrate, 10 minutes preincubation
S. aureus SPase, sequence (P0A070 whole entry): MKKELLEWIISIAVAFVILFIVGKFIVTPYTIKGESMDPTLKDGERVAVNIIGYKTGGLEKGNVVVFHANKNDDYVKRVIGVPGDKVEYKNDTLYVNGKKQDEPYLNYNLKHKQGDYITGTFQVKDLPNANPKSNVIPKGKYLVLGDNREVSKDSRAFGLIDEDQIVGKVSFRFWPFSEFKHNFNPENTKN
Procedure: Full length His-tagged S. aureus SPase protein was expressed similarly from E. coli BL21(DE3) containing the plasmid pCDF1-SaSpsB and purified similarly to the E. coli protein with the following exceptions. SPase protein was solubilized using 300 mM NaCl, 20 mM Tris pH 8.06, 5 mM Imidazole, 10% glycerol, 1% Triton X-100, prior to purification in Ni-NTA Superflow resin and resin bound protein was washed in a similar buffer containing 1% Elugent in place of Triton X-100 prior to protein eluted in wash buffer supplemented with 300 mM imidazole. […] All protein concentrations were determined by BCA assay.
(§1) Signal peptidase enzyme activity of the above proteins was measured using two fluorogenic peptide substrates (decanoyl-LSSPAYNO2A ? ADKabzPD and decanoyl-LTPTAYNO2A ? ASKKabzDD), where abz is the fluorescence donor 2-aminobenzamide, YNO2 is the fluorescence acceptor 3-nitrotyrosine, and the cleavage site is indicated with an arrow. Enzyme mix solution was prepared by diluting 2.5 nM of Escherichia coli or Staphylococcus aureus SPase protein into reaction buffers consisting of 20 mM PO4 pH 7.4, 100 mM NaCl, and 1% Elugent™ or octyl phenoxypolyethoxylethanol detergent at a concentration of 0.25% or 0.0625%. Reactions were initiated by the addition of substrate to a final concentration of 20 μM. Reaction progress was monitored by measuring the increase in fluorescence signal (excitation at 314 nm, emission at 416 nm) using a SpectraMax M2 fluorescence microplate reader. To determine IC50 values of test compounds, compound stock solutions were prepared in DMSO at a concentration of 1 mM. Three-folder serial dilutions of test compounds, starting at 10 μM, were prepared in enzyme mix solution and incubated at room temperature for 10 minutes. Following this incubation, fluorogenic substrate was added to a final concentration of 20 μM and the increase in fluorescence, corresponding to substrate cleavage, was monitored continuously at room temperature for 1 hour. Initial reaction rates were calculated based on the rate of increase in fluorescence during the reaction. Reaction rates were plotted as a function of compound concentration, and IC50 values are determined nonlinear regression analysis (SoftMaxPro 5.4, Molecular Devices™) of the sigmoidal dose-response curve.

[1] = system: Escherichia coli strain MC4100 IMP-4213, which harbors an LptD mutation; settings: E. coli MC4100 IMP-4213, 35° C., 22 hours
Procedure, shortened: (§2)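 CLSI broth microdilution in cation-adjusted Mueller Hinton Broth with 0.002% Tween-80, two-fold dilutions starting at 64 μg/ml.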

[2] = system: methicillin resistant Staphylococcus aureus (MRSA) strain USA300 (NRS384); settings: MRSA USA300 (NRS384), 35° C., 22 hours
Procedure, shortened: as §2

E. coli SPase = target: T1, E. coli SPase (Escherichia coli, UniProt P00803); test: Biochemical SPase activity assay, fluorogenic peptide substrate, E. coli enzyme; settings: 20 μM substrate, 10 minutes preincubation, read-out: IC 50 (nM) E. coli
T1 construct: Full length His-tagged E. coli SPase proteins; His; made in house; host or cells: E. coli BL21(DE3)
T1 sequence (P00803 whole entry): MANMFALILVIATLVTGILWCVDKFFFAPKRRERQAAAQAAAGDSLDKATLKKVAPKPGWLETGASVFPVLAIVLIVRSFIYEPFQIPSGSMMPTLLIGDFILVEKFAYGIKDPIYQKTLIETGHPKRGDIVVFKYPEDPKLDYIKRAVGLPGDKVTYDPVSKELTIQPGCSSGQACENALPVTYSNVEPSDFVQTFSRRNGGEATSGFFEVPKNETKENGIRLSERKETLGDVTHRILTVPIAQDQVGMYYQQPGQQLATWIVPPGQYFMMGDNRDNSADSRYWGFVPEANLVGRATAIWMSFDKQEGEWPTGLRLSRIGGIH
Procedure: Full length His-tagged E. coli SPase proteins were expressed in E. coli BL21(DE3) containing the plasmid pET23-lepB. Briefly, saturated overnight cultures grown in 20 ml of Luria-Bertani medium supplemented with ampicillin were subcultures into 1.5 L of Luria-Bertani, and shaken at 37° C. until an optical density at 600 nm of 0.4-0.5 was achieved.
as §1

SMILES | IC50 (S. aureus SPase) | MIC (μg/mL) E. coli [1] | MIC (μg/mL) S. aureus [2] | IC50 (E. coli SPase) | MIC (μg/mL) E. coli ([1]; listed as 205 P1) | MIC (μg/mL) S. aureus ([2]; listed as 205 P1)
C[C@H](NC(=O)[C@H](CCCCN)NC(=O)[C@H](C)NC(=O)[C@@H](NC(=O)[C@H](CCCCN)NC(=O)N1CCC(C)(c2ccccc2)CC1)[C@@H](C)O)B1O[C@@H]2C[C@@H]3C[C@@H](C3(C)C)[C@]2(C)O1 [Compound 130] ({X9-CO}-KTAK-{boroAla((+)-pinanediol)}) | 280 nM | >64 µg/mL | 64 µg/mL (≈ 75 µM) | 270 nM |  | 
C[C@H](NC(=O)[C@@H](NC(=O)[C@H](CN)NC(=O)c1ccc(-c2ccc(Cl)cc2)cc1)[C@@H](C)O)C(=O)N[C@@H](CCCCN)C(=O)N[C@@H](C)C(=O)C(=O)NCCc1ccccc1 [Compound 110] ({Benzoyl(4-(4-Cl-Ph))}-[Dap]TAK[X1]-NHPhenethyl) | 3800 nM | 64 µg/mL (≈ 77.9 µM) | 32 µg/mL (≈ 39 µM) | 6000 nM |  | 
C[C@H](NC(=O)[C@H](CCCCN)NC(=O)[C@H](C)NC(=O)[C@@H](NC(=O)[C@H](CCN)NC(=O)c1ccc(-c2ccc(Cl)cc2)cc1)[C@@H](C)O)B(O)O [Compound 119] ({Benzoyl(4-(4-Cl-Ph))}-[Dab]TAK-boroAla) | 120 nM | 2 µg/mL (≈ 2.84 µM) | 1 µg/mL (≈ 1.42 µM) | 10 nM |  | 
CCCCCCCCCC(=O)NCCC(=O)N[C@@H](CCCCN)C(=O)N[C@H](C(=O)N[C@@H](C)C(=O)N[C@@H](CC(N)=O)C(=O)NC(C)C(=O)C(=O)NC)C(C)O (stereo partly drawn) [Compound 106] ({Decanoyl-βAla}-K[Thr(3ξ)]AN[ξ3Amino2oxobutanoyl]-NHMe) | 45 nM | >64 µg/mL | >64 µg/mL | 6200 nM |  | 
C[C@H](NC(=O)[C@@H](NC(=O)[C@H](CN)NC(=O)c1ccc(-c2ccc(Cl)cc2)cc1)[C@@H](C)O)C(=O)N[C@@H](CCCCN)C(=O)N[C@@H](C)C(=O)C(=O)NC(C)(C)C [Compound 108] ({Benzoyl(4-(4-Cl-Ph))}-[Dap]TAK[X1]-NHtBu) | 3700 nM | >64 µg/mL | >64 µg/mL | 930 nM |  | 
CCNC(=O)C(=O)[C@H](C)NC(=O)[C@H](CCCCN)NC(=O)[C@H](C)NC(=O)[C@@H](NC(=O)[C@H](CN)NC(=O)c1ccc(-c2ccc(Cl)cc2)cc1)[C@@H](C)O [Compound 102] ({Benzoyl(4-(4-Cl-Ph))}-[Dap]TAK[X1]-NHEt) | 580 nM | >64 µg/mL | 32 µg/mL (≈ 42.9 µM) | 440 nM |  | 
CCCCCCCCCC(=O)N[C@@H](CCN)C(=O)N[C@H](C(=O)N[C@@H](C)C(=O)N[C@@H](CCCCN)C(=O)N[C@@H](C)B(O)O)[C@@H](C)O [Compound 120] (Decanoyl-[Dab]TAK-boroAla) | 120 nM | 11 µg/mL (≈ 17.1 µM) | 2.8 µg/mL (≈ 4.35 µM) | 21 nM |  | 
CCCCc1ccc(-c2ccc(C(=O)N[C@@H](CCN)C(=O)N[C@H](C(=O)N[C@@H](C)C(=O)N[C@@H](CCCCN)C(=O)N[C@@H](C)C(=O)C3OC3C)[C@@H](C)O)cc2)cc1 (single isomer, unassigned) [Compound 205 P1] | > 10000 nM |  |  | > 10000 nM | 32 µg/mL (≈ 41.8 µM) | >64 µg/mL
CCCCc1ccc(-c2ccc(C(=O)N[C@@H](CCN)C(=O)N[C@H](C(=O)N[C@@H](C)C(=O)N[C@@H](CCCCN)C(=O)N[C@@H](C)B3O[C@@H]4C[C@@H]5C[C@@H](C5(C)C)[C@]4(C)O3)[C@H](C)O)cc2)cc1 [Compound 125] ({Biphenylcarbonyl(4'-Bu)}-[Dab][aThr]AK-{boroAla((+)-pinanediol)}) | 280 nM | 0.4 µg/mL (≈ 0.465 µM) | 0.4 µg/mL (≈ 0.465 µM) | 10 nM |  | 

Reference: US20160194358A1, “LINEAR PEPTIDE ANTIBIOTCS” (priority 2013, published 2016)
